Measurements: the supplement of paper PMC11061612

Experiments:
Assay in all cases: Bliss excess, mean over the matrix (fraction); higher = more synergy
[1] = test system: SK-MG-1 (Low Grade Glioma)
How it was run: (§1)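 After 24 hours at 37°C and 5% CO2 in 1536-well plates, cells in DMEM/F12 or RPMI plus 10% FBS received two-drug dose matrices for 72 hours. Viability came from CellTiter-Glo 2.0 luminescence and was scaled as inhibition, anchored at 0 by vehicle wells and at 1 by blank wells. Combination Emax is taken as the second-highest inhibition in the matrix, and Bliss excess as the observed combination effect less EA + EB − EA·EB, with EA and EB the single-agent effects.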

[2] = test system: CAL-29 (Bladder Carcinoma)
How it was run: as §1

[3] = test system: NCI-H64 (Small Cell Lung Carcinoma)
How it was run: as §1

[4] = test system: MDST8 (Colorectal Carcinoma)
How it was run: as §1

[5] = test system: JSC-1 (B-Cell Non-Hodgkin's Lymphoma)
How it was run: as §1

[6] = test system: A3-KAW (B-Cell Non-Hodgkin's Lymphoma)
How it was run: as §1

[7] = test system: NCI-H1650 (Lung Adenocarcinoma)
How it was run: as §1

[8] = test system: COLO-320-HSR (Colorectal Carcinoma)
How it was run: as §1

[9] = test system: ECC10 (Gastric Carcinoma)
How it was run: as §1

[10] = test system: NCI-H1693 (Lung Adenocarcinoma)
How it was run: as §1

[11] = test system: CAPAN-2 (Pancreatic Carcinoma)
How it was run: as §1

[12] = test system: A549 (Lung Adenocarcinoma)
How it was run: as §1

IGR-37 (Melanoma) = test system: IGR-37 (Melanoma)
How it was run: as §1

PA-1 (Ovarian Carcinoma) = test system: PA-1 (Ovarian Carcinoma)
How it was run: as §1

[13] = test system: ONS-76 (Other Solid Carcinomas)
How it was run: as §1

[14] = test system: NCI-H2066 (Squamous Cell Lung Carcinoma)
How it was run: as §1

Hs-445 (Non-Cancerous) = test system: Hs-445 (Non-Cancerous)
How it was run: as §1

[15] = test system: NCI-H1581 (Non-Small Cell Lung Carcinoma)
How it was run: as §1

FU97 (Gastric Carcinoma) = test system: FU97 (Gastric Carcinoma)
How it was run: as §1

[16] = test system: COR-L311 (Small Cell Lung Carcinoma)
How it was run: as §1

| SMILES | Bliss excess [1] | Bliss excess [2] | Bliss excess [3] | Bliss excess [4] | Bliss excess [5] | Bliss excess [6] | Bliss excess [7] | Bliss excess [8] | Bliss excess [9] | Bliss excess [10] | Bliss excess [11] | Bliss excess [12] | Bliss excess (IGR-37 (Melanoma)) | Bliss excess (PA-1 (Ovarian Carcinoma)) | Bliss excess [13] | Bliss excess [14] | Bliss excess (Hs-445 (Non-Cancerous)) | Bliss excess [15] | Bliss excess (FU97 (Gastric Carcinoma)) | Bliss excess [16] |
| --- | --- | --- | --- | --- | --- | --- | --- | --- | --- | --- | --- | --- | --- | --- | --- | --- | --- | --- | --- | --- |
| CCN(CCO)CCCOc1ccc2c(Nc3cc(CC(=O)Nc4cccc(F)c4)[nH]n3)ncnc2c1 [AZD2811] + C=CCn1c(=O)c2cnc(Nc3ccc(N4CCN(C)CC4)cc3)nc2n1-c1cccc(C(C)(C)O)n1 [AZD1775] (first compound max 1 µM, partner max 1 µM) | -0.0121 | 0.0208 | -0.0413 | 0.064 | -0.0038 | 0.0539 | -0.0277 | -0.0465 | -0.0021 | 0.0099 | -0.0462 | 0.015 | -0.023 | 0.0565 | 0.018 | -0.0589 | -0.004 | 0.154 | -0.0289 | -0.176 |
| CC1(C)CCC(CN2CCN(c3ccc(C(=O)NS(=O)(=O)c4ccc(NCC5CCOCC5)c([N+](=O)[O-])c4)c(Oc4cnc5[nH]ccc5c4)c3)CC2)=C(c2ccc(Cl)cc2)C1 [Venetoclax] + C[C@@H](Nc1cc(F)cc(F)c1)c1cc(C(=O)N(C)C)cc2c(=O)cc(N3CCOCC3)oc12 [AZD8186] (first compound max 1 µM, 7x7, partner max 3 µM) | -0.0149 | -0.0341 | 0.0288 | -0.0304 | -0.0218 | -0.0047 | -0.019 | -0.0052 | 0.0539 | -0.034 | -0.0167 | -0.0073 | -0.0335 | -0.0401 | -0.025 | -0.0182 | 0.0888 | 0.0121 | -0.0019 | 0.0257 |
| COc1nnc2ccc(N3CCC(c4ccc(OCCN5CCN(C)C(=O)[C@H]5C)cc4)CC3)nn12 [AZD5153] + CCN(CCO)CCCOc1ccc2c(Nc3cc(CC(=O)Nc4cccc(F)c4)[nH]n3)ncnc2c1 [AZD2811] (first compound max 1 µM, 7x7, partner max 1 µM) | -0.0568 | 0.0084 | 0.0609 | 0.0761 | 0.0038 | 0.0269 | -0.0868 | -0.0417 | -0.103 | -0.098 | -0.0286 | -0.0407 | 0.0031 | 0.032 | -0.0124 | -0.0352 | -0.0783 | -0.143 | -0.0048 | -0.0357 |
| C[C@@H](c1ccc2nccn2c1)n1nnc2ncc(-c3cnn(C)c3)nc21 [Savolitinib] + Cc1c2c(nn1C)CSCc1cc(n(C)n1)CSc1cc(c3ccccc3c1)OCCCc1c(C(=O)O)n(C)c3c-2c(Cl)ccc13 [AZD5991] (first compound max 1 µM, 7x7, partner max 1 µM) | -0.0648 | -0.0474 | -0.021 | -0.0413 | -0.0434 | -0.0499 | -0.0634 | -0.0464 | 0.0229 | -0.0684 | -0.0206 | -0.0279 | 0.0454 | -0.0266 | -0.0219 | -0.0455 | -0.0407 | -0.0209 | -0.0118 | -0.0246 |
| Cn1cnc2c(F)c(Nc3ccc(Br)cc3Cl)c(C(=O)NOCCO)cc21 [Selumetinib] + CC(C)n1c(=O)n(C)c2cnc3cc(F)c(-c4ccc(OCCCN5CCCCC5)nc4)cc3c21 [AZD1390] (first compound max 10 µM, 7x7, partner max 0.3 µM) | -0.049 | -0.0073 | -0.0279 | -0.0468 | -0.0477 | 0.0678 | -0.0572 | -0.0182 | 0.0038 | -0.0814 | -0.0005 | -0.0534 | -0.0398 | 0.0162 | -0.0108 | -0.061 | -0.0425 | 0.0074 | -0.0344 | -0.0541 |
| Cn1cnc2c(F)c(Nc3ccc(Br)cc3Cl)c(C(=O)NOCCO)cc21 [Selumetinib] + CCN(CCO)CCCOc1ccc2c(Nc3cc(CC(=O)Nc4cccc(F)c4)[nH]n3)ncnc2c1 [AZD2811] (first compound max 10 µM, 7x7, partner max 1 µM) | -0.0245 | 0.0023 | 0.0312 | -0.0214 | 0.203 | 0.165 | -0.0333 | -0.0398 | -0.094 | -0.0196 | 0.0517 | 0.0248 | -0.0274 | -0.0998 | -0.0464 | -0.0322 | 0.013 | -0.0775 | -0.0013 | -0.0546 |
| COc1cccc(OCCCN)c1-c1cc(Nc2cnc(C#N)cn2)n[nH]1 [Prexasertib] + C[C@@H]1COCCN1C2=NC(=NC(=C2)C3(CC3)[S@](=N)(=O)C)C4=C5C=CNC5=NC=C4 [AZD6738] (first compound max 1 µM, 7x7, partner max 10 µM) | -0.0012 | -0.0331 | -0.0184 | -0.0209 | -0.0089 | 0.0104 | 0.0094 | -0.0406 | 0.0929 | 0.0816 | -0.003 | 0.0241 | -0.0621 | -0.0438 | -0.0803 | -0.0154 | -0.0661 | 0.0436 | -0.0427 | -0.0363 |
| Cc1c2c(nn1C)CSCc1cc(n(C)n1)CSc1cc(c3ccccc3c1)OCCCc1c(C(=O)O)n(C)c3c-2c(Cl)ccc13 [AZD5991] + Cc1cc2ncnn2cc1Nc1ncc2c(n1)n(C1CCOCC1)c(=O)n2C [AZD7648] (first compound max 1 µM, 7x7, partner max 10 µM) | -0.0349 | 0.014 | -0.0186 | -0.0487 | -0.0499 | -0.0101 | -0.0408 | -0.0184 | -0.0409 | -0.026 | 0.0141 | -0.111 | 0.0039 | -0.0774 | -0.0236 | -0.0141 | -0.0109 | -0.0026 | -0.044 | 0.0101 |
| COc1cc2ncnc(Nc3ccc(F)c(Cl)c3)c2cc1OCCCN1CCOCC1 [Gefitinib] + CC(C)n1c(=O)n(C)c2cnc3cc(F)c(-c4ccc(OCCCN5CCCCC5)nc4)cc3c21 [AZD1390] (first compound max 10 µM, 7x7, partner max 0.3 µM) | -0.078 | -0.104 | -0.022 | -0.0584 | -0.0911 | -0.0098 | -0.0477 | -0.0398 | -0.0231 | -0.04 | -0.0652 | -0.0544 | -0.0865 | -0.0949 | -0.0386 | 0.0099 | -0.0356 | -0.0457 | -0.0177 | -0.0545 |
| C=CCn1c(=O)c2cnc(Nc3ccc(N4CCN(C)CC4)cc3)nc2n1-c1cccc(C(C)(C)O)n1 [AZD1775] + C1CN(CCC1(C(=O)N[C@@H](CCO)C2=CC=C(C=C2)Cl)N)C3=NC=NC4=C3C=CN4 [Capivasertib] (first compound max 3 µM, partner max 3 µM) | -0.0212 | 0.0187 | 0.0202 | -0.0769 | -0.0146 | 0.0032 | -0.0473 | -0.0314 | -0.0156 | -0.0389 | -0.0949 | 0.015 | -0.0316 | -0.0229 | -0.0258 | -0.0567 | -0.1 | 0.0271 | 0.0946 | -0.0057 |
| NC1(C(=O)N[C@@H](CCO)c2ccc(Cl)cc2)CCN(c2ncnc3[nH]ccc23)CC1 [Capivasertib] + COc1nnc2ccc(N3CCC(c4ccc(OCCN5CCN(C)C(=O)[C@H]5C)cc4)CC3)nn12 [AZD5153] (first compound max 10 µM, 7x7, partner max 1 µM) | 0.0477 | 0.0937 | -0.0011 | 0.105 | -0.0312 | -0.0363 | 0.0322 | -0.0289 | 0.0708 | -0.0062 | -0.0143 | -0.0345 | 0.0011 | -0.0386 | 0.0234 | 0.0135 | -0.027 | -0.0303 | -0.0154 | -0.0089 |
| CN(CCO)CC[C@H](CSc1ccccc1)Nc1ccc(S(=O)(=O)NC(=O)c2ccc(N3CCC([C@@H](O)c4ccccc4-c4ccc(Cl)cc4)CC3)cc2)cc1S(=O)(=O)C(F)(F)F [AZD4320] + C=CCn1c(=O)c2cnc(Nc3ccc(N4CCN(C)CC4)cc3)nc2n1-c1cccc(C(C)(C)O)n1 [AZD1775] (first compound max 1 µM, partner max 1 µM) | 0.064 | 0.0124 | 0.0886 | 0.0362 | -0.0077 | 0.0279 | -0.0096 | -0.0268 | 0.136 | -0.0047 | 0.0665 | -0.0429 | 0.0354 | 0.0773 | -0.0196 | -0.0534 | 0.165 | 0.059 | -0.0315 | -0.0091 |
| CC1(C)CCC(CN2CCN(c3ccc(C(=O)NS(=O)(=O)c4ccc(NCC5CCOCC5)c([N+](=O)[O-])c4)c(Oc4cnc5[nH]ccc5c4)c3)CC2)=C(c2ccc(Cl)cc2)C1 [Venetoclax] + C=CCn1c(=O)c2cnc(Nc3ccc(N4CCN(C)CC4)cc3)nc2n1-c1cccc(C(C)(C)O)n1 [AZD1775] (first compound max 1 µM, partner max 1 µM) | -0.0369 | -0.0167 | 0.0168 | -0.0489 | -0.0281 | -0.0298 | -0.0298 | 0.0635 | 0.0951 | -0.0281 | -0.0013 | -0.0366 | 0.0267 | 0.0034 | 0.0043 | -0.0598 | 0.127 | -0.009 | 0.0519 | -0.104 |
| COc1nnc2ccc(N3CCC(c4ccc(OCCN5CCN(C)C(=O)[C@H]5C)cc4)CC3)nn12 [AZD5153] + C[C@@H]1COCCN1C2=NC(=NC(=C2)C3(CC3)[S@](=N)(=O)C)C4=C5C=CNC5=NC=C4 [AZD6738] (first compound max 1 µM, 7x7, partner max 10 µM) | -0.0065 | 0.0219 | 0.0357 | 0.0544 | -0.067 | -0.006 | 0.0238 | 0.0292 | 0.0654 | -0.0383 | 0.0047 | -0.0292 | -0.0149 | -0.0502 | -0.0698 | -0.0454 | -0.0475 | 0.0013 | 0.0043 | -0.0501 |
